According to patent US20240309015A1, “Methods for the Treatment of Fibrotic Disease” (SHY Therapeutics, LLC, priority 2021, published 2024):

Columns and labels:
Smad2/3 phosphorylation = experiment: Phospho-Smad2/3 Inhibition Assay in PANC-1; assay type: cell-based; conditions: Homo sapiens, western blot
Summary of the method: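 Serum-starved cells (0.5% FBS overnight) pretreated 3 h at 37 °C with compound at 10 μM or serial dilutions for IC50, in 0.3% DMSO. TGF-b1 10 ng/ml stimulation: 1 h for Panc-1 (human), 20 min for C2C12 (mouse). Phospho-Smad2 (Ser465/467) and phospho-Smad3 (Ser423/425) measured by western blot of lysates.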

Rho-A = experiment: Ras GTP Binding Domain Inhibition Assay, Rho-A; conditions: at 20 μM
Summary of the method: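 His-tagged GTPases, 10-30 μg/mL in Tris-HCl buffer (pH 7.4 or 7.0, MgCl2, DTT), were immobilised on nickel-coated wells overnight at 4° C. Compounds were added at 20 μM or as serial dilutions for IC50 in 1% DMSO for 3 h at room temperature, ±Sos(556-1049) in the final hour. Bound Cy3/Cy5-GTP (100 nM, 45 min) was read after washing.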

MAPK p38 = MAPK p38 Activation Assay in PANC-1; assay type: cell-based, human; parameters: key: Y = yes; N = No; conditions: at 10 μM
Description: Cell lines: Human tumor-derived pancreatic cancer cell line Panc-1 and mouse muscle myoblast C2C12 were purchased from American Type Culture Collection and grown in complete DMEM-High Glucose, supplemented with penicillin (100 U/mL), streptomycin (100 μg/mL), and 10% heat-inactivated FBS at 37° C. in a humidified incubator with 5% C02.
Method: Cells were plated at 350000 cells/well density in a 12-well plate, allowed 3 hours to adhere to the plate, then starved in the appropriate medium in the presence of 0.5% FBS overnight. The small molecules to be tested were added to the cells in the final concentration of 10 μM in the presence of 0.3% DMSO for 3 hours incubation at 37° C. For IC50 value determination, serial dilutions of compounds were added to cells under the same conditions. […] Protein concentration was assessed by BCA protein assay (Thermo Scientific). Phosphorylation level of MAPK p38 was determined by western blot.
Western blot protocol: Equal amounts of protein (15-50 μg) were separated by SDS-PAGE and transferred to nitrocellulose membranes (Invitrogen by Thermo Fisher Scientific). […] Membranes were blocked with 10% milk and phosphorylation levels of Smad2/Smad3 were assessed by incubating overnight at 4° C. with the following antibody: Phospho-p38 MAPK (Thr180/Tyr182), from Cell Signaling Technology. […]

IC50 (Smad2/3 phosphorylation; PANC-1, TGF-b1 stimulated): 5 to 10 µM
Rho-A + SOS: % inh. (Rho-A; with SOS): D (D = 76-100% inhibition)
Rho-A: % inh. (Rho-A; without SOS): C (C = 46-75% inhibition)
Structure (SMILES): CO[C@H]1CC[C@@H](Nc2nc(-c3nccn3C)nc3sc(-c4ccn(C)n4)c(-c4ccccc4)c23)C1 (racemic) [Compound 5, rac-N-((1R,3S)-3-Methoxycyclopentyl)-2-(1-methyl-1H-imidazol-2-yl)-6-(1-methyl-1H-pyrazol-3-yl)-5-phenylthieno[2,3-d]pyrimidin-4-amine]
inhibition at 10 µM (Smad2/3 phosphorylation; 10 μM compound, 3 h, TGF-b1 stimulated PANC-1, read-out: % inh of Smad2/3 phosphorylation in PANC-1): 76 to 100%
Activation of MAPK p38 in PANC-1 (MAPK p38): Y
